Assay results as given in patent publication US20260008760A1, “DIPEPTIDYL PEPTIDASE 1 INHIBITORS AND USES THEREOF” (Insmed Incorporated, priority 2024, published 2026).

Assays:
human DPP1 enzyme [1] = molecular target: T1, human DPP1 enzyme (Homo sapiens, UniProt P53634); assay: Human DPP1 Enzyme Single-Point Percent Inhibition Testing (HL-60 lysate); assay type: biochemical; design: A crude lysate of HL-60 cells (ATCC; Manassas, VA) was used as a source of human DPP1 enzyme; host or cells: HL-60 cells (crude lysate); settings: final compound concentration of 10 nM, 400 μM H-Gly-Arg-AMC, n = 1
Experimental: Example 98. Human DPP1 Enzyme Single-Point Percent Inhibition Testing
A crude lysate of HL-60 cells (ATCC; Manassas, VA) was used as a source of human DPP1 enzyme in the assay. Lysate was prepared in 1% Triton X-100 in PBS at a concentration of 20,000 live cells per μL of lysis buffer and was centrifuged at 16,000 rcf for 10 minutes at 4° C., after which supernatant was collected and flash-frozen in liquid nitrogen. Test articles were applied to human DPP1 enzyme in Assay Buffer (25 mM MES pH 6.0, 50 mM NaCl, 5 mM DTT) in a total reaction volume of 125 μL. 25 μL of compound diluted to 50 nM in Assay Buffer plus 5% DMSO was first added to 50 μL of HL-60 lysate diluted to contain a DPP1 enzyme concentration of roughly 1 ng/μL and allowed to pre-incubate for 10 minutes at 37° C. after which 50 μL of 1000 μM H-Gly-Arg-AMC substrate (Bachem; St. Torrance, CA) was added, giving final compound concentration of 10 nM, a final substrate concentration of 400 μM and a final DMSO concentration of 1%. Substrate cleavage was measured for 90 minutes at 37° C., with fluorescence at Excitation/Emission 350/450 nm measured every 5 minutes. DPP1 concentration was interpolated based on its activity relative to a standard curve of activated human recombinant DPP1 enzyme. Percent inhibition at 10 nM was calculated for each test article based on remaining DPP1 activity compared to enzyme activity in wells that received only vehicle control.
Target sequence in this assay (P53634 25-463): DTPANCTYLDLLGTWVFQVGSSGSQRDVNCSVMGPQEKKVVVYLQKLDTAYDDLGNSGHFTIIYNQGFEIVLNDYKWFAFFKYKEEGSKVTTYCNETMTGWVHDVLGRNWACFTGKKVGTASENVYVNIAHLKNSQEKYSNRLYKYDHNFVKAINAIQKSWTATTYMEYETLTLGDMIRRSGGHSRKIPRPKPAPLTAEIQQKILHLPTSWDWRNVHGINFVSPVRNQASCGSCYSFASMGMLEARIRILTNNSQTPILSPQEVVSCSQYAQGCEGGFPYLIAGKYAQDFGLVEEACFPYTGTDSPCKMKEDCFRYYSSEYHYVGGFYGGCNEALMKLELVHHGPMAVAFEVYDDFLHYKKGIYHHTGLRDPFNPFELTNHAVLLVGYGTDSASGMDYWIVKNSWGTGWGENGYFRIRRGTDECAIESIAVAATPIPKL

DPP1 in HL-60 cells [2] = molecular target: T2, DPP1 in HL-60 cells (Homo sapiens, UniProt P53634); assay: DPP1 Cell Single-Point Percent Inhibition Testing; assay type: cell-based; design: host or cells: HL-60 cells; settings: final compound concentration 5 nM, n = 1
Experimental: Example 100. DPP1 Cell Single-Point Percent Inhibition Testing
HL-60 cells (ATCC; Manassas, VA) were maintained in RPMI-1640 supplemented with 20% heat-inactivated FBS and 1× Antibiotic Antimycotic (Cytiva; Marlborough, MA). Media was changed every three to four days and cells were not allowed to exceed 1×10^6 cells per mL. Prior to assay, cells were collected by centrifugation at 500 rcf for 3 minutes, resuspended in RPMI (with no additional supplements) and counted. Cells were diluted in RPMI to a concentration of 5×10^5 live cells per mL and transferred to black 96-well plates for assay, 60 μL per well. Test articles were diluted to 25 nM in RPMI plus 0.5% DMSO, and 20 μL was added to each assay well. Compound was allowed to pre-incubate with cells with gentle shaking at 100 rpm for 60 minutes at 37° C. in a cell culture incubator maintained at 5% CO2, after which 20 μL of 500 μM H-Gly-Phe-AFC cell-permeable substrate (MP Biomedicals; Solon, OH) in RPMI was added to each well, giving final compound concentration of 5 nM, a final substrate concentration of 100 μM and a final DMSO concentration of 0.1%. Plates were returned to the incubator with shaking at 100 rpm for 30 minutes, after which fluorescence was measured at Excitation/Emission 400/505 nm. Percent Inhibition was calculated from RFU values by first subtracting background values (wells in which RPMI was substituted for cells) from each well, and then subtracting background-subtracted RFU derived from wells that received a final concentration of 10 μM brensocatib. This value represents the non-specific substrate cleavage from the HL-60 cells, and the remaining RFU should theoretically be solely the contribution of DPP1 enzyme activity. The final percent inhibition value was calculated for each test article based on remaining RFU compared to RFU from wells that received only vehicle control.

human DPP1 enzyme [3] = molecular target: T1, human DPP1 enzyme; assay: Human DPP1 Enzyme IC50 Assay; assay type: biochemical; design: was first proteolytically processed into its mature form using recombinant human cathepsin L; purchased R&D Systems; settings: activated recombinant human DPP1, 400 μM H-Gly-Arg-AMC, 10 minutes pre-incubation at 37° C., pH 6.0; average of n runs; read-out: Avg. IC50 (Human DPP1 enzyme IC50 value ranges)
In short: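 IC50 came from a four-parameter fit of activity relative to no-compound control, with fluorescence (Ex 350/Em 450 nm) read every 5 min for 90 min at 37 °C using 400 μM final H-Gly-Arg-AMC. Cathepsin L-matured human recombinant DPP1 was preincubated 10 min with compound at pH 6.0 (MES, DTT, 1% DMSO).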
Target sequence in this assay (P53634 25-134 limits assumed): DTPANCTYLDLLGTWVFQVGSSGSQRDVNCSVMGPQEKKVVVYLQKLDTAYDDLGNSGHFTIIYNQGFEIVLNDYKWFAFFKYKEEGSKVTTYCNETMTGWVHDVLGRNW
Target sequence in this assay (P53634 231-394 limits assumed): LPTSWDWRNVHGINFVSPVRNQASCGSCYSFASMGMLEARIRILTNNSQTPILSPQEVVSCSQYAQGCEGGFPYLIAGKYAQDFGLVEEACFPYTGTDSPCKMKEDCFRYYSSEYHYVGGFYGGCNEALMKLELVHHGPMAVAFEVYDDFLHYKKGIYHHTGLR
Target sequence in this assay (P53634 395-463 limits assumed): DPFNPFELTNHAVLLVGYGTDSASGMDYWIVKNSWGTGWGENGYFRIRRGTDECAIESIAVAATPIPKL

DPP1 in HL-60 cells [4] = molecular target: T2, DPP1 in HL-60 cells; assay: DPP1 Cell IC50 assay; assay type: cell-based; design: host or cells: HL-60 cells; settings: 60 min pre-incubation, H-Gly-Phe-AFC substrate, average of n runs, read-out: Avg. IC50 (DPP1 Cell IC50 value ranges)
In short: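 Intracellular DPP1 activity read as AFC fluorescence (Ex/Em 400/505 nm) after 30 min with H-Gly-Phe-AFC (500 μM stock), following 60 min compound pre-incubation at 37° C with HL-60 cells at 5×10^5 live cells per mL in PBS. IC50 by 4-parameter fit against DMSO-only controls.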

T2 sequence (P53634 25-463): as the sequence (P53634 25-463) above

Row | inhibition at 0.01 µM (human DPP1 enzyme [1]) | inhibition at 0.005 µM (DPP1 in HL-60 cells [2]) | IC50 (human DPP1 enzyme [3]) | IC50 (DPP1 in HL-60 cells [4]) | Structure (SMILES)
1 | ≤ 40% | ≤ 76.5% | – | – | CN1CCCC2(C1)C(=O)N(C)c1ccc(-c3ccc(C[C@@H](C#N)NC(=O)[C@@H]4CNCCCCO4)cc3)cc12 (some centres unmarked) [Compound 36]
2 | ≤ 40% | ≤ 76.5% | – | – | CN1CC2(C1)OC(=O)c1ccc(-c3ccc(C[C@@H](C#N)NC(=O)[C@@H]4CNCCCCO4)cc3)cc12 [Compound 37]
3 | ≤ 40% | ≤ 76.5% | – | – | CN1CCC2(C1)OC(=O)c1ccc(-c3ccc(C[C@@H](C#N)NC(=O)[C@@H]4CNCCCCO4)cc3)cc12 (some centres unmarked) [Compound 38]
4 | ≤ 40% | ≤ 76.5% | – | – | CN1CCN(Cc2ccc(-c3ccc(C[C@@H](C#N)NC(=O)[C@@H]4CNCCCCO4)cc3)cc2)CC1 [Compound 40]
5 | 40 to 66.7% | ≤ 76.5% | – | – | CN1CCCC2(C1)C(=O)N(C)c1ccc(-c3ccc(C[C@@H](C#N)NC(=O)[C@@H]4CNCCCCO4)c(F)c3)cc12 (some centres unmarked) [Compound 41]
6 | 40 to 66.7% | ≤ 76.5% | – | – | CN1CC2(C1)OC(=O)c1ccc(-c3ccc(C[C@@H](C#N)NC(=O)[C@@H]4CNCCCCO4)c(F)c3)cc12 [Compound 42]
7 | 40 to 66.7% | ≤ 76.5% | – | – | CN1CCC2(C1)OC(=O)c1ccc(-c3ccc(C[C@@H](C#N)NC(=O)[C@@H]4CNCCCCO4)c(F)c3)cc12 (some centres unmarked) [Compound 43]
8 | ≤ 40% | ≤ 76.5% | – | – | CN1CCN(Cc2ccc(-c3ccc(C[C@@H](C#N)NC(=O)[C@@H]4CNCCCCO4)c(F)c3)cc2)CC1 [Compound 45]
9 | ≤ 40% | ≤ 76.5% | – | – | N#C[C@H](Cc1ccc(-c2ccc(S(=O)(=O)N3CCC3)cc2)cc1)NC(=O)[C@@H]1CNCCCCO1 [Compound 46]
10 | ≤ 40% | ≤ 76.5% | – | – | N#C[C@H](Cc1ccc(-c2ccc(S(=O)(=O)N3CCC3)cc2)cc1F)NC(=O)[C@@H]1CNCCCCO1 [Compound 47]
11 | 40 to 66.7% | ≤ 76.5% | – | – | CN1CCCC2(C1)C(=O)N(C)c1ccc(-c3ccc(C[C@@H](C#N)NC(=O)[C@@H]4CNCCCO4)c(F)c3)cc12 (some centres unmarked) [Compound 48]
12 | ≤ 40% | ≤ 76.5% | – | – | N#C[C@H](Cc1ccc(-c2ccc(S(=O)(=O)N3CCC3)cc2)cc1F)NC(=O)[C@@H]1CNCCCO1 [Compound 49]
13 | ≥ 66.7% | 76.5 to 93.9% | – | – | CO[C@@H]1CCNC[C@@H](C(=O)N[C@H](C#N)Cc2ccc(-c3cc4c(C)nc(C)cn4c3)cc2)OC1 [Compound A80]
14 | 40 to 66.7% | ≤ 76.5% | – | – | CO[C@@H]1CCNC[C@@H](C(=O)N[C@H](C#N)Cc2ccc(-c3ccc4c(n3)CCCN4)cc2)OC1 [Compound A81]
15 | ≥ 66.7% | 76.5 to 93.9% | – | – | CO[C@@H]1CCNC[C@@H](C(=O)N[C@H](C#N)Cc2ccc(-c3cc4c(C)nc(C)cn4c3)cc2F)OC1 [Compound A82]
16 | ≥ 66.7% | 76.5 to 93.9% | – | – | CO[C@@H]1CCNC[C@@H](C(=O)N[C@H](C#N)Cc2ccc(-c3ccc4c(n3)CCCN4)cc2F)OC1 [Compound A83]

Row | inhibition at 0.01 µM (human DPP1 enzyme [1]) | inhibition at 0.005 µM (DPP1 in HL-60 cells [2]) | IC50 (human DPP1 enzyme [3]) | IC50 (DPP1 in HL-60 cells [4]) | Structure (SMILES)
17 | 40 to 66.7% | ≤ 76.5% | – | – | CO[C@@H]1CCNC[C@@H](C(=O)N[C@H](C#N)Cc2ccc(-c3cnc4c(n3)CCCC4)cc2)OC1 [Compound A84]
18 | ≥ 66.7% | ≤ 76.5% | – | – | CO[C@@H]1CCNC[C@@H](C(=O)N[C@H](C#N)Cc2ccc(-c3cnc4c(n3)CCCC4)cc2F)OC1 [Compound A85]
19 | 40 to 66.7% | ≤ 76.5% | – | – | COC1CNC[C@@H](C(=O)N[C@H](C#N)Cc2ccc(-c3cc4c(C)nc(C)cn4c3)cc2)OC1 (some centres unmarked) [Compound A86]
20 | ≥ 66.7% | 76.5 to 93.9% | – | – | COC1CNC[C@@H](C(=O)N[C@H](C#N)Cc2ccc(-c3ccc4c(n3)CCCN4)cc2)OC1 (some centres unmarked) [Compound A87]
21 | – | – | < 5 nM | 1 to 2.5 nM | CO[C@@H]1CNC[C@@H](C(=O)N[C@H](C#N)Cc2ccc(-c3ccc4nnn(C)c4c3)cc2)OC1 [Compound H12-B]
22 | – | – | 5 to 15 nM | > 2.5 nM | N#C[C@H](Cc1ccc(-c2ccc3c(c2)C2(CCN(C4COC4)CC2)COC3)cc1)NC(=O)[C@@H]1CNCCCO1 [Compound I5]
23 | – | – | 5 to 15 nM | > 2.5 nM | N#C[C@H](Cc1ccc(-c2ccc3c(c2)[C@@]2(CCN(C4COC4)C2)COC3)cc1)NC(=O)[C@@H]1CNCCCO1 [Compound I6]
24 | – | – | > 15 nM | > 2.5 nM | N#C[C@H](Cc1ccc(-c2ccc3c(c2)C2(CCN(C4CC4)CC2)SCC3)cc1)NC(=O)[C@@H]1CNCCCO1 [Compound I7]
25 | – | – | 5 to 15 nM | > 2.5 nM | N#C[C@H](Cc1ccc(-c2ccc3c(c2)[C@@]2(CCCN(C4CCCCC4)C2)CS3)cc1)NC(=O)[C@@H]1CNCCCO1 [Compound I9]
26 | – | – | 5 to 15 nM | > 2.5 nM | N#C[C@H](Cc1ccc(-c2ccc3c(c2)[C@@]2(CCCN(C4CC4)C2)COC3)cc1)NC(=O)[C@@H]1CNCCCO1 [Compound I12]
27 | – | – | > 15 nM | > 2.5 nM | N#C[C@H](Cc1ccc(-c2ccc3c(c2)[C@]2(CCCN(c4ccsc4)C2)SC3)cc1)NC(=O)[C@@H]1CNCCCO1 [Compound I13]
28 | – | – | > 15 nM | > 2.5 nM | N#C[C@H](Cc1ccc(-c2ccc3c(c2)C[C@]2(CCN(c4nccs4)C2)OC3)cc1)NC(=O)[C@@H]1CNCCCO1 [Compound I14]
29 | – | – | > 15 nM | > 2.5 nM | N#C[C@H](Cc1ccc(-c2ccc3c(c2)[C@]2(CCCN(C#N)C2)SC3)cc1)NC(=O)[C@@H]1CNCCCO1 [Compound I15]
30 | – | – | > 15 nM | > 2.5 nM | N#C[C@H](Cc1ccc(-c2ccc3c(c2)C2(CCN(c4nccs4)CC2)SC3)cc1)NC(=O)[C@@H]1CNCCCO1 [Compound I16]
31 | – | – | > 15 nM | > 2.5 nM | N#C[C@H](Cc1ccc(-c2ccc3c(c2)[C@]2(CCN(C#N)C2)SC3)cc1)NC(=O)[C@@H]1CNCCCO1 [Compound I18]
32 | – | – | > 15 nM | > 2.5 nM | N#C[C@H](Cc1ccc(-c2ccc3c(c2)[C@]2(CCCN(c4nccs4)C2)COC3)cc1)NC(=O)[C@@H]1CNCCCO1 [Compound I20]

Row | Structure (SMILES) | inhibition at 0.01 µM (human DPP1 enzyme [1]) | inhibition at 0.005 µM (DPP1 in HL-60 cells [2]) | IC50 (human DPP1 enzyme [3]) | IC50 (DPP1 in HL-60 cells [4])
33 | N#C[C@H](Cc1ccc(-c2ccc3c(c2)C2(CCN(C4COC4)CC2)OC3)cc1)NC(=O)[C@@H]1CNCCCCO1 [Compound 39] | ≤ 40% | ≤ 76.5% | – | –
34 | N#C[C@H](Cc1ccc(-c2ccc3c(c2)C2(CCN(C4CCC4)CC2)OC3)cc1F)NC(=O)[C@@H]1CNCCCCO1 [Compound 44] | 40 to 66.7% | ≤ 76.5% | – | –
